According to patent US10035760B2, “Inhibitors of human immunodeficiency virus replication” (priority 2013, dated 2018):
Like-named read-outs stand apart in the source and are kept apart here.

Tested on: recombinant NL4-3 virus (Renilla luciferase) in MT-2 cells
Assay: HIV cell culture assay (antiviral activity, luciferase readout in infected MT-2 cells)
Assay type: cell-based
Details: Renilla
Protocol: HIV cell culture assay—MT-2 cells, 293T cells and the proviral DNA clone of NL4-3 virus were obtained from the NIH AIDS Research and Reference Reagent Program. MT-2 cells were propagated in RPMI 1640 media supplemented with 10% heat inactivated fetal bovine serum (FBS), 100 ug/ml penicillin G and up to 100 units/ml streptomycin. The 293T cells were propagated in DMEM media supplemented with 10% heat inactivated FBS, 100 ug/ml penicillin G and 100 ug/ml streptomycin. A recombinant NL4-3 proviral clone, in which a section of the nef gene was replaced with the Renilla luciferase gene, was used to make the reference virus used in these studies. The recombinant virus was prepared through transfection of the recombinant NL4-3 proviral clone into 293T cells using Transit-293 Transfection Reagent from Mirus Bio LLC (Madison, Wis.). Supernatent was harvested after 2-3 days after transfection, and the amount of virus present was titered in MT-2 cells using luciferase enzyme activity as a marker. Luciferase activity was quantitated using the EnduRen Live Cell Substrate from Promega (Madison, Wis.). Antiviral activities of compounds toward the recombinant virus were quantified by measuring luciferase activity in MT-2 cells infected for 4-5 days with the recombinant virus in the presence of serial dilutions of the compound.
The 50% effective concentration (EC50) was calculated by using the exponential form of the median effect equation where (Fa)=1/[1+(ED50/drug conc.)^m](Johnson V A, Byington R T. Infectivity Assay. In Techniques in HIV Research. ed. Aldovini A, Walker B D. 71-76. New York: Stockton Press. 1990).

[1] = NL43, read-out: Activity, antiviral activity class, recombinant NL4-3 Renilla luciferase virus in MT-2 cells
[2] = NL43, recombinant NL4-3 Renilla luciferase virus in MT-2 cells

SMILES	EC50 [1]	EC50 [2]
Cc1ccccc1S(=O)(=O)NC(=O)N[C@@H](Cc1ccccc1)C(=O)N(C)c1ccc2ncn(C)c2c1 [Example CA-73, (S)—N-methyl-N-(1-methyl-H-benzo[d]imidazol-6-yl)-3-phenyl-2-(3-(o-tolylsulfonyl)ureido)propanamide]	100 to 1000 nM	
Cc1ccccc1S(=O)(=O)NC(=O)N[C@@H](Cc1ccccc1)C(=O)N(C)C1CCCCC1 [Example 179, (S)—N-cyclohexyl-N-methyl-3-phenyl-2-(3-(o-tolylsulfonyl)ureido)propanamide]	1000 to 10000 nM	
Cc1ccccc1S(=O)(=O)NC(=O)N[C@@H](Cc1cc(F)cc(F)c1)C(=O)N(C)c1ccc2cc[nH]c(=O)c2c1 [Example CA-103, (S)-3-(3,5-difluorophenyl)-N-methyl-N-(1-oxo-1,2-dihydroisoquinolin-7-yl)-2-(3-(o-tolylsulfonyl)ureido)propanamide]	1000 to 10000 nM	1330 nM
CCN(C(=O)[C@H](Cc1ccccc1)NC(=O)NS(=O)(=O)c1ccccc1N)c1ccc(OC)cc1 [Example 147, (S)-2-(3-((2-aminophenyl)sulfonyl)ureido)-N-ethyl-N-(4-methoxyphenyl)-3-phenylpropanamide]	< 100 nM	
Cc1ccccc1S(=O)(=O)NC(=O)N[C@@H](Cc1cc(F)cc(F)c1)C(=O)N(C)c1ccc(F)c(C(N)=O)c1 [Example CA-102, (S)-5-(3-(3,5-difluorophenyl)-N-methyl-2-(3-(o-tolylsulfonyl)ureido)propanamido)-2-fluorobenzamide]	1000 to 10000 nM	2580 nM
CC(C)CS(=O)(=O)NC(=O)N[C@@H](Cc1ccccc1)C(=O)N(C)c1ccc2c(c1)OCO2 [Example 45, (S)—N-(benzo[d][1,3]dioxol-5-yl)-2-(3-(isobutylsulfonyl)ureido)-N-methyl-3-phenylpropanamide]	100 to 1000 nM	
Cc1ccccc1S(=O)(=O)NC(=O)N[C@@H](Cc1ccc(C(F)(F)F)cc1)C(=O)N(C)c1ccc2c(c1)OCO2 [Example 61, (S)—N-(benzo[d][1,3]dioxol-5-yl)-N-methyl-2-(3-(o-tolylsulfonyl)ureido)-3-(4-(trifluoromethyl)phenyl)propanamide]	1000 to 10000 nM	6620 nM
COc1ccc2c(c1)OCCN2C(=O)[C@H](Cc1ccccc1)NC(=O)NS(=O)(=O)c1ccccc1C [Example 172, (S)—N-((1-(7-methoxy-2H-benzo[b][1,4]oxazin-4(3H)-yl)-1-oxo-3-phenylpropan-2-yl)carbamoyl)-2-methylbenzenesulfonamide]	100 to 1000 nM	270 nM
CCN(C(=O)[C@H](Cc1ccccc1)NC(=O)NS(=O)(=O)c1cccc(-c2cc3c(OC)cccc3[nH]2)c1C)c1ccc(OC)cc1 [Example 162, (S)—N-ethyl-2-(3-((3-(4-methoxy-1H-indol-2-yl)-2-methylphenyl)sulfonyl)ureido)-N-(4-methoxyphenyl)-3-phenylpropanamide]	1000 to 10000 nM	
Cc1ccccc1S(=O)(=O)NC(=O)N[C@@H](Cc1ccc(-c2ccccc2)cc1)C(=O)N(C)c1ccc2c(c1)OCO2 [Example 69, (S)-3-([1,1′-biphenyl]-4-yl)-N-(benzo[d][1,3]dioxol-5-yl)-N-methyl-2-(3-(o-tolylsulfonyl)ureido)propanamide]	10000 to 100000 nM	
Cc1ccccc1S(=O)(=O)NC(=O)N[C@@H](Cc1ccccc1)C(=O)N(C)c1ccc2c(c1)CCO2 [Example CA-76, (S)—N-(2,3-dihydrobenzofuran-5-yl)-N-methyl-3-phenyl-2-(3-(o-tolylsulfonyl)ureido)propanamide]	< 100 nM	
CN(C(=O)[C@H](Cc1ccccc1)NC(=O)NS(=O)(=O)Cc1ccccc1Cl)c1ccc2c(c1)OCO2 [Example 101, (S)—N-(benzo[d][1,3]dioxol-5-yl)-2-(3-((2-chlorobenzyl)sulfonyl)ureido)-N-methyl-3-phenylpropanamide]	100 to 1000 nM	
COc1ccc(N(C)C(=O)[C@H](Cc2cc(F)cc(F)c2)NC(=O)NS(=O)(=O)c2ccccc2C)cc1 [Example 205, (S)-3-(3,5-difluorophenyl)-N-(4-methoxyphenyl)-N-methyl-2-(3-(o-tolylsulfonyl)ureido)propanamide]	100 to 1000 nM	110 nM
Cc1ccc(C)c(S(=O)(=O)NC(=O)N[C@@H](Cc2ccccc2)C(=O)N(C)c2ccc3c(c2)OCO3)c1 [Example 13, (S)—N-(benzo[d][1,3]dioxol-5-yl)-2-(3-((2,5-dimethylphenyl)sulfonyl)ureido)-N-methyl-3-phenylpropanamide]	< 100 nM	50 nM
COc1cccc(S(=O)(=O)NC(=O)N[C@@H](Cc2ccccc2)C(=O)N(C)c2ccc3c(c2)OCO3)c1 [Example 20, (S)—N-(benzo[d][1,3]dioxol-5-yl)-2-(3-((3-methoxyphenyl)sulfonyl)ureido)-N-methyl-3-phenylpropanamide]	< 100 nM	90 nM
COc1ccc(N(C)C(=O)[C@H](Cc2ccncc2)NC(=O)NS(=O)(=O)c2ccccc2C)cc1 [Example 199, (S)—N-(4-methoxyphenyl)-N-methyl-3-(pyridin-4-yl)-2-(3-(o-tolylsulfonyl)ureido)propanamide]	10000 to 100000 nM	
COc1ncc(-c2ccccc2S(=O)(=O)NC(=O)N[C@@H](Cc2ccccc2)C(=O)N(C)c2ccc3c(c2)OCO3)cn1 [Example 130, (S)—N-(benzo[d][1,3]dioxol-5-yl)-2-(3-((2-(2-methoxypyrimidin-5-yl)phenyl)sulfonyl)ureido)-N-methyl-3-phenylpropanamide]	1000 to 10000 nM	
CN(C(=O)[C@H](Cc1ccccc1)NC(=O)NS(=O)(=O)c1ccccc1)c1ccc2c(c1)OCO2 [Example 1, (S)—N-(benzo[d][1,3]dioxol-5-yl)-N-methyl-3-phenyl-2-(3-(phenylsulfonyl)ureido)propanamide]	100 to 1000 nM	260 nM
C=CCOc1ccc(N(C)C(=O)[C@H](Cc2ccccc2)NC(=O)NS(=O)(=O)c2ccccc2C)cc1 [Example 216, (S)—N-(4-(allyloxy)phenyl)-N-methyl-3-phenyl-2-(3-(o-tolylsulfonyl)ureido)propanamide]	< 100 nM	
C/C=C\c1cccc(S(=O)(=O)NC(=O)N[C@@H](Cc2ccccc2)C(=O)N(CC)c2ccc(OC)cc2)c1 [Example 140]	< 100 nM	
CN(C(=O)[C@H](Cc1ccccc1)NC(=O)NS(=O)(=O)c1ccccc1)c1ccc2c(c1)OC(F)(F)O2 [Example 36, (S)—N-(2,2-difluorobenzo[d][1,3]dioxol-5-yl)-N-methyl-3-phenyl-2-(3-(phenylsulfonyl)ureido)propanamide]	1000 to 10000 nM	
Cc1ccccc1S(=O)(=O)NC(=O)N[C@@H](Cc1ccccc1Cl)C(=O)N(C)c1ccc2c(c1)OCO2 [Example 54, (S)—N-(benzo[d][1,3]dioxol-5-yl)-3-(2-chlorophenyl)-N-methyl-2-(3-(o-tolylsulfonyl)ureido)propanamide]	100 to 1000 nM	
Cc1ccccc1S(=O)(=O)NC(=O)N[C@@H](Cc1ccc(C#N)cc1)C(=O)N(C)c1ccc2c(c1)OCO2 [Example 63, (S)—N-(benzo[d][1,3]dioxol-5-yl)-3-(4-cyanophenyl)-N-methyl-2-(3-(o-tolylsulfonyl)ureido)propanamide]	1000 to 10000 nM	
CCN(C(=O)[C@H](Cc1ccccc1)NC(=O)NS(=O)(=O)c1cccc(-c2ccnn2CC(C)C)c1C)c1ccc(OC)cc1 [Example 214, (S)—N-ethyl-2-(3-((3-(1-isobutyl-1H-pyrazol-5-yl)-2-methylphenyl)sulfonyl)ureido)-N-(4-methoxyphenyl)-3-phenylpropanamide]	100 to 1000 nM	870 nM
CN(C(=O)[C@H](Cc1ccccc1)NC(=O)NS(=O)(=O)c1ccccc1Cl)c1ccc2c(c1)OC(F)(F)O2 [Example 38, (S)-2-(3-((2-chlorophenyl)sulfonyl)ureido)-N-(2,2-difluorobenzo[d][1,3]dioxol-5-yl)-N-methyl-3-phenylpropanamide]	100 to 1000 nM	310 nM
COc1cccc(N(C)C(=O)[C@H](Cc2ccccc2)NC(=O)NS(=O)(=O)c2ccccc2C)c1 [Example 166, (S)—N-(3-methoxyphenyl)-N-methyl-3-phenyl-2-(3-(o-tolylsulfonyl)ureido)propanamide]	100 to 1000 nM	240 nM
Cc1ccc(S(=O)(=O)NC(=O)N[C@@H](Cc2ccccc2)C(=O)N(C)c2ccc3c(c2)OCO3)s1 [Example 27, (S)—N-(benzo[d][1,3]dioxol-5-yl)-N-methyl-2-(3-((5-methylthiophen-2-yl)sulfonyl)ureido)-3-phenylpropanamide]	100 to 1000 nM	
Cc1ccccc1S(=O)(=O)NC(=O)N[C@@H](Cc1cccc(Cl)c1)C(=O)N(C)c1ccc2c(c1)OCO2 [Example 55, (S)—N-(benzo[d][1,3]dioxol-5-yl)-3-(3-chlorophenyl)-N-methyl-2-(3-(o-tolylsulfonyl)ureido)propanamide]	100 to 1000 nM	
Cc1ccccc1S(=O)(=O)NC(=O)N[C@@H](Cc1ccccc1)C(=O)N(C)c1ccc2c(c1)OCO2 [Example 2, (S)—N-(benzo[d][1,3]dioxol-5-yl)-N-methyl-3-phenyl-2-(3-(o-tolylsulfonyl)ureido)propanamide]	< 100 nM	70 nM
